From patent publication US20230255934A1, “NURR1 RECEPTOR MODULATORS AND USES THEREOF” (The Regents of the University of California, priority 2020, published 2023)
Entries after “also recorded” stand apart in the source; their conditions may differ. Where two headings read alike, the source gives them in different places.

Experiments:
MN9D cells = experiment: CytoTox-Glo cytotoxicity assay; format: cell-based; conditions: 24 h treatment, 10 μM unless stated
Experimental: Cytotoxicity assays were carried out using the CytoTox-Glo Cytotoxicity Assay Kit (Promega) according to the manufacturer's instructions. Briefly, MN9D cells were resuspended in DMEM/F-12 with 5% FBS at 2·10^5 cells/ml and added to an equal volume of two-fold concentrated compound in the same media containing 0.2% DMSO (prepared by diluting DMSO stock of the compound in warm DMEM/F-12 with 5% FBS; for DMSO control equivalent volume of DMSO was used instead of the compound stock), and immediately re-plated onto poly-D-lysine pre-treated 96-well white-walled flat clear bottom plate (Corning cat #3903) at a density of 1·10^4 cells/well (100 μL/well), 3 replicas per compound. As a background (BG) control, for each of the compound (or DMSO) equivalent volume of compound mixed with DMEM/F-12+5% FBS was plated. After 24 h treatment at 37° C., in 5% C02 incubator, 50 μL of CytoTox-Glo™ Cytotoxicity Assay Reagent was added to each well, mixed briefly by orbital shaking and incubated for 15 min at ambient temperature. Luminescence signal corresponding to dead cells was measured using Biotek Synergy H4 hybrid microplate reader. After the measurement, 50 μL of Lysis Reagent was added to each well, mixed, incubated for 15 min at ambient temperature, and total luminescence was measured. The percentage of viable cells was then calculated as follows: Percent Viable Cells (%)=100% (Total cell luminescence (test compound)—Dead cell luminescence (test compound))/(Total cell luminescence (DMSO)—Dead cell luminescence (DMSO)).

[1] = UV/VIS spectroscopy (A280) under MST assay conditions; format: physicochemical; conditions: A280 linear over all concentrations, 0.1% Pluronic F127
Nurr1 LBD (wildtype) = target: T1, Nurr1 LBD (wildtype) (Homo sapiens, UniProt P43354); experiment: Microscale thermophoresis (MST) binding to wildtype Nurr1 LBD; conditions: for Binding to the Nurr1 LBD (in words): MST; for Kd: read-out: KD; for Amplitude: Table 1, MST amplitude, WT; for Response Amplitude: Table 2, MST, Wildtype
T1 construct: made in house
Experimental: (§1) Concentration-dependent association of the indoles with the Nurr1 LBD was carried out using microscale thermophoresis. Stock solutions (10 mM in DMSO) of each indole were serially diluted (200 μM indole, 0.5× dilutions down to 0.0061 μM) in MST buffer (25 mM HEPES, pH 7.4, 150 mM NaCl, and 0.1% Pluronic F127) containing 2% DMSO. The dilutions were carried out with 4% DMSO in the MST buffer for a total of 16 concentrations. Equivalent volumes and concentrations of the fluorescently labeled Nurr1 LBD in MST buffer were added to each ligand dilution in the series to reach a final concentration of 75 nM labeled protein. After incubating for 20 minutes, the samples were loaded into Monolith NT.115 Capillaries (Nanotemper).
(§2) Data were collected using the Monolith NT.115 System (Nanotemper), with settings for all samples at 40% excitation power and 40% MST power. The initial fluorescence was recorded for 3 sec and the thermophoresis fluorescence response was recorded for 20 sec. The data was inspected with Palmist software^5, and data points affected by initial fluorescence quenching or photobleaching were eliminated. The fluorescent response for each sample was normalized to the initial fluorescence using Palmist software to provide the values of thermophoresis (Fn). The resulting data was used to generate a plot of the change in thermophoresis (Fn-Fn0, where Fn=thermophoresis and Fn0=thermophoresis response in unbound range) versus concentration of the ligand. GraphPad Prism v. 8.3.0 software was used to fit the resulting data to a mass action equation for a specific binding with Hill slope, solving for KD: Fn-Fn0═Fmax·[L]^n/(KD^n+[L]^n), where Fmax=maximum amplitude of thermophoresis, [L]=concentration of the ligand at a specific point, KD=dissociation constant, nH=Hill Coefficient.
To investigate the potential impact of compound nano-aggregation on binding affinity, we used dynamic light scattering to inspect the aggregation of 5-chlorindole in solution and repeated the MST binding experiments in the presence of increasing concentrations of the surfactant Pluoronic F127 (FIGS. 12A-12D). […] As well, increasing concentrations of the surfactant Pluronic F127 had small effects (<2-fold) on the affinity of 5-chloroindole for the Nurr1 LBD (FIGS. 12A-12D).

Nurr1 LBD His516Ala = target: T2, Nurr1 LBD His516Ala (Homo sapiens, UniProt P43354, H516A); experiment: MST binding to His516Ala mutant Nurr1 LBD; conditions: for Amplitude (% change) / KD (% change): Table 1, H516 relative to WT; for Amplitude: Table 1, MST amplitude, H516; for Response Amplitude: Table 2, MST, His516Ala
T2 construct: Mutants of LAP2 Nurr1 were prepared by GenScript starting from LAP2 Nurr1 vector; made in house
Experimental: (§3) The plasmid used for the expression of LAP2-tagged Nurr1 LBDs (LAP2 Nurr1) was prepared by GenScript (Piscataway, N.J.) as the product of gene synthesis and subcloning into pET-21a(+) Vector (GenScript) using the Ndel and Xhol sites within the MCS. Mutants of LAP2 Nurr1 were prepared by GenScript starting from LAP2 Nurr1 vector.
as §1, §2

[2] = target: T3, Nurr1 LBD Arg563Ala + His516Ala (Homo sapiens, UniProt P43354, H516A/R563A); experiment: MST binding to Arg563Ala + His516Ala double mutant Nurr1 LBD; conditions: for Amplitude: Table 1, MST amplitude, H516A/R563A; for Response Amplitude: Table 2, MST, Arg563Ala + His516Ala
T3 construct: Mutants of LAP2 Nurr1 were prepared by GenScript starting from LAP2 Nurr1 vector; made in house
T3 sequence (P43354 with tags, fused parts or gaps H516A/R563A): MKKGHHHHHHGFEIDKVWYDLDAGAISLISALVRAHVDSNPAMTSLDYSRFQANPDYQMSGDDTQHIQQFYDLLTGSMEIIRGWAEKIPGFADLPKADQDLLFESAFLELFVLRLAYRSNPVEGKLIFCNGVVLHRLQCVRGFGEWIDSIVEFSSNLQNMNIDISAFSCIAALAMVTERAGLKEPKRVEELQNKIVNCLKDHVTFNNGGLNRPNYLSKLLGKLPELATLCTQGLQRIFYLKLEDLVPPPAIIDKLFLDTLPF
Experimental: as §3, §1, §2

[3] = Table 1, Nurr1 variant H516, read-out: KD
[4] = Table 2, His516Ala, read-out: Affinity (KD)
[5] = Table 1, H516A/R563A relative to WT

T1 sequence (P43354 with tags, fused parts or gaps): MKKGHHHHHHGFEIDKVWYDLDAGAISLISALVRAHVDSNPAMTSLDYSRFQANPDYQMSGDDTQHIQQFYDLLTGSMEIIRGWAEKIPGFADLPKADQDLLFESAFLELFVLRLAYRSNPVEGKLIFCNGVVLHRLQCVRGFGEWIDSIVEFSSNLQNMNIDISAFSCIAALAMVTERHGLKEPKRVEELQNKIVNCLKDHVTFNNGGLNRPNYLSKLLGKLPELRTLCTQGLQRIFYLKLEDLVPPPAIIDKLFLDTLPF
T2 sequence (P43354 with tags, fused parts or gaps H516A): as the sequence (P43354 with tags, fused parts or gaps) above, with H180A counted along it

| Compound | Cytotoxicity / cell viability (MN9D cells) | Precipitation under MST assay conditions [1] | Binding to the Nurr1 LBD (in words) (Nurr1 LBD (wildtype)) | Kd (Nurr1 LBD (wildtype); Nurr1 LBD) [µM] | Amplitude (Nurr1 LBD (wildtype)) | Kd (Nurr1 LBD (wildtype); Table 1, Nurr1 variant WT) [µM] | Response Amplitude (Nurr1 LBD (wildtype)) | Amplitude (% change) (Nurr1 LBD His516Ala) [%] | KD (% change) (Nurr1 LBD His516Ala) | Amplitude (Nurr1 LBD His516Ala) | Kd (Nurr1 LBD His516Ala; [3]) [µM] | Kd (Nurr1 LBD His516Ala; [4]) [µM] | Response Amplitude (Nurr1 LBD His516Ala) | Amplitude (% change) [2, 5] [%] | Amplitude [2] | Response Amplitude [2] | other results |
| --- | --- | --- | --- | --- | --- | --- | --- | --- | --- | --- | --- | --- | --- | --- | --- | --- | --- |
| Brc1ccc2[nH]ccc2c1 [5-bromoindole] | somewhat toxic to cells under certain conditions | do not precipitate under the assay conditions | saturable binding | 5 | 72 + 8 | 10 | 50 + 4 | −43 | +10% | 41 + 5 | 11 | 7.3 | 33 + 5 (*) | ≥−86 | - (≤10) | ≤10 (****) | Amplitude (% change) (Nurr1 LBD (wildtype); Table 1, WT (reference)): 0; Binding affinity for His516Ala mutant versus wildtype (in words) (Nurr1 LBD His516Ala; MST): statistically unchanged; Binding to Arg563Ala + His516Ala mutant Nurr1 LBD (in words) ([2]; MST): completely eliminated |
| Clc1ccc2[nH]ccc2c1 [5-chloroindole] | no significant effect on cell viability; also recorded: not cytotoxic; also recorded: non-cytotoxic | do not precipitate under the assay conditions | saturable binding; also recorded: comparable to DHI | 15 | 68 + 4 | 25 | 54 + 2 | −50 | −36% | 34 + 4 | 16 | 8.6 | 25 + 2 (****) | −62 | 26 + 2 | 23 + 1 (****) | Hill coefficient nH (Nurr1 LBD (wildtype); 0.1% Pluronic F127): 2; Hill coefficient nH (Nurr1 LBD (wildtype); 0.2% Pluronic F127): 2; Kd (Nurr1 LBD (wildtype); 0.2% Pluronic F127): 8.3 ± 0.7 µM; Hill coefficient nH (Nurr1 LBD (wildtype); 0.5% Pluronic F127): 1; Kd (Nurr1 LBD (wildtype); 0.5% Pluronic F127): 10.9 ± 0.3 µM; Hill coefficient nH (Nurr1 LBD (wildtype); 1.0% Pluronic F127): 1; Kd (Nurr1 LBD (wildtype); 1.0% Pluronic F127): 9.1 ± 0.4 µM; KD (% change) [2, 5]: −68%; Kd ([2]; Table 1, Nurr1 variant H516A/R563A, read-out: KD): 8 µM; Kd ([2]; Table 2, Arg563Ala + His516Ala, read-out: Affinity (KD)): 7.3 µM |
